This note sets out measurements from ChEMBL document CHEMBL1201862, “PubChem BioAssay data set” (2004).

SMILES strings stand for the structures. The source made the active and inactive calls. Where only a bound is given, the exact number is not on record here.

What all share (format): functional
Assay [1] deals with Protein kinase C theta type (Homo sapiens, UniProt Q04759). The experiment in a line: Navigating the Kinome. Panel member name: PRKCQ.
Assay [2] has as its target T1, Serine/threonine-protein kinase TAO1 (Homo sapiens, UniProt Q7L7X3).
T1 sequence (Q7L7X3 whole entry): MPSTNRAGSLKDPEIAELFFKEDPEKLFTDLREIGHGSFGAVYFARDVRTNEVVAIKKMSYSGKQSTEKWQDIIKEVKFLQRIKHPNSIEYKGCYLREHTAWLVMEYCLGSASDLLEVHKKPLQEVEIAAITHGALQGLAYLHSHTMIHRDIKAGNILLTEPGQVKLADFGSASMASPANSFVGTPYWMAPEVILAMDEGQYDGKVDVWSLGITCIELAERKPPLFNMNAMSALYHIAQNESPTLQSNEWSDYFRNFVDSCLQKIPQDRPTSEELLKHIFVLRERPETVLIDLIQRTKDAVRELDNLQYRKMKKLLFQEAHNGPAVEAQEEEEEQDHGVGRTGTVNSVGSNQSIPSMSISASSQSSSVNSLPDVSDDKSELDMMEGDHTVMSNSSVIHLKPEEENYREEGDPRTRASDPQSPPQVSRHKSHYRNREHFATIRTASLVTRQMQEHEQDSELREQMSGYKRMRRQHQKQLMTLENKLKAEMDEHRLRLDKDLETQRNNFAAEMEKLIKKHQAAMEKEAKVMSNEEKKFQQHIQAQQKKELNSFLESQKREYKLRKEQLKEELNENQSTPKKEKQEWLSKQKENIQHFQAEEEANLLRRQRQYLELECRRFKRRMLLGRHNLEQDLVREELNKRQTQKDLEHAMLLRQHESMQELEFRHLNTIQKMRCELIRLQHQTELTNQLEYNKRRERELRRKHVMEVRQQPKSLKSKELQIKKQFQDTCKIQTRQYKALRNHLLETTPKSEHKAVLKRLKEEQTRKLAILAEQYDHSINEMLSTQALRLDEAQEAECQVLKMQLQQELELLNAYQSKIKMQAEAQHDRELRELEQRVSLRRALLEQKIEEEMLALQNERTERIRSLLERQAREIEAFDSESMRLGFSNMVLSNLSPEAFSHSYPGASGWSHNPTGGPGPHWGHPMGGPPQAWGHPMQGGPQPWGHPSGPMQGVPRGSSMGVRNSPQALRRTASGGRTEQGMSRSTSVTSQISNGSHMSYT

Assay [3] has as its target Glycogen synthase kinase-3 alpha (Homo sapiens, UniProt P49840).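 Also: GSK3A result taken from a broad kinome-wide kinase panel.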
Assay [4] addresses T2, Mitogen-activated protein kinase kinase kinase kinase 2 (Homo sapiens, UniProt Q12851).
T2 sequence (Q12851 whole entry): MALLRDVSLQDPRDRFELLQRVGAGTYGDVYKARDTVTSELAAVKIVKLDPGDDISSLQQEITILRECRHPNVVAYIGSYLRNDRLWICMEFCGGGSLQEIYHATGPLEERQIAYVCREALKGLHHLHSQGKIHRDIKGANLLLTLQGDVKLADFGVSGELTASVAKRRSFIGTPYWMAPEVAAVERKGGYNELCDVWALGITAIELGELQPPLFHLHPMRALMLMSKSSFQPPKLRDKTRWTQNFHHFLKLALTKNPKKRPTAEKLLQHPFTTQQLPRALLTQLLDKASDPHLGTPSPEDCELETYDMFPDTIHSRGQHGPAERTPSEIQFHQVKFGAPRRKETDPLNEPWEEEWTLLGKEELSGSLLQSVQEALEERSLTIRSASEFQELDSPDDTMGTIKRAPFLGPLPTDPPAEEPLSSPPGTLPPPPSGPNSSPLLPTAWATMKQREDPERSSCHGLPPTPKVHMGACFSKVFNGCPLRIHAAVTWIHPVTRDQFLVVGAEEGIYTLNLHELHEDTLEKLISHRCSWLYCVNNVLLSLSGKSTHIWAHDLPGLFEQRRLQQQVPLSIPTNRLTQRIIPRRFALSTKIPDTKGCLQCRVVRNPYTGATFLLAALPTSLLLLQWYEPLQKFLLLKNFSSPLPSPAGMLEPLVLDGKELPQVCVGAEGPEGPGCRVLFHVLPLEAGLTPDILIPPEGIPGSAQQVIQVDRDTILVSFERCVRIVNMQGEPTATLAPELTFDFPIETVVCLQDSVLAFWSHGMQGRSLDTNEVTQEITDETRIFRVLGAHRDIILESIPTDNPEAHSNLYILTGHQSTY

Assay [5] addresses Dual specificity tyrosine-phosphorylation-regulated kinase 1B (Homo sapiens, UniProt Q9Y463). Briefly: Navigating the Kinome. Panel member name: DYRK1B.
In another assay the target is Focal adhesion kinase 1 (Homo sapiens, UniProt Q05397).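 Also: measured as one member of a kinome panel.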
The target of a further assay is Aurora kinase B (Homo sapiens, UniProt Q96GD4).
Chain of Aurora kinase B (Q96GD4 whole entry): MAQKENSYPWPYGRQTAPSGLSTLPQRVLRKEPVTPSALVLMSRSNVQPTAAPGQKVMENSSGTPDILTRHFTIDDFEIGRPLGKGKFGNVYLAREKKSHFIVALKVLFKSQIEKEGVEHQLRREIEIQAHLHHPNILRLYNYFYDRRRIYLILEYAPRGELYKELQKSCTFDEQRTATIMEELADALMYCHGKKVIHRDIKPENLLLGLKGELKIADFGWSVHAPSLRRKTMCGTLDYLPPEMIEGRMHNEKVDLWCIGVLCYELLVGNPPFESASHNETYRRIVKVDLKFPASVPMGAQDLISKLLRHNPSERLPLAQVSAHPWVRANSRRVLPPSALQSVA
Assay [6] addresses Rho-associated protein kinase 1 (Homo sapiens, UniProt Q13464).
Assay [7] concerns the target Cyclin-dependent kinase 9 (Homo sapiens, UniProt P50750).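 Also: value from the CDK9 entry of a kinome-spanning kinase panel.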
Assay [8] addresses cAMP-dependent protein kinase catalytic subunit alpha (Homo sapiens, UniProt P17612).
Assay [9] addresses Mitogen-activated protein kinase 14 (Homo sapiens, UniProt Q16539).

Chain of Dual specificity tyrosine-phosphorylation-regulated kinase 1B (Q9Y463 whole entry): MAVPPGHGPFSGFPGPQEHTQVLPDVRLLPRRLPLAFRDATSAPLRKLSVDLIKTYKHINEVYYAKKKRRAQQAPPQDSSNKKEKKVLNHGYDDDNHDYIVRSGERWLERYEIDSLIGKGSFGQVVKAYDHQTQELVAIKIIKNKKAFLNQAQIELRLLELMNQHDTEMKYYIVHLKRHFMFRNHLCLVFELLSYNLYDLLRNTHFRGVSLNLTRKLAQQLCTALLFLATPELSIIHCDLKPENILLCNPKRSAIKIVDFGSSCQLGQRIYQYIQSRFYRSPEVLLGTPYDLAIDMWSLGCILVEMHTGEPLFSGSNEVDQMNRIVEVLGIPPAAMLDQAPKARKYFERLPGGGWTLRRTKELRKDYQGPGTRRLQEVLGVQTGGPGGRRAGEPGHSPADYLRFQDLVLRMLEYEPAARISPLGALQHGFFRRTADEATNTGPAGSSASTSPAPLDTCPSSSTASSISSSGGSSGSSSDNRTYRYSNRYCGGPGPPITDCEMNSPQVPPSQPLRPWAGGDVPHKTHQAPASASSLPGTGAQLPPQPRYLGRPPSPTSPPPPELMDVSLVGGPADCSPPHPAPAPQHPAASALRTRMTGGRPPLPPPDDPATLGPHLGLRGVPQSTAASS
Chain of Cyclin-dependent kinase 9 (P50750 whole entry): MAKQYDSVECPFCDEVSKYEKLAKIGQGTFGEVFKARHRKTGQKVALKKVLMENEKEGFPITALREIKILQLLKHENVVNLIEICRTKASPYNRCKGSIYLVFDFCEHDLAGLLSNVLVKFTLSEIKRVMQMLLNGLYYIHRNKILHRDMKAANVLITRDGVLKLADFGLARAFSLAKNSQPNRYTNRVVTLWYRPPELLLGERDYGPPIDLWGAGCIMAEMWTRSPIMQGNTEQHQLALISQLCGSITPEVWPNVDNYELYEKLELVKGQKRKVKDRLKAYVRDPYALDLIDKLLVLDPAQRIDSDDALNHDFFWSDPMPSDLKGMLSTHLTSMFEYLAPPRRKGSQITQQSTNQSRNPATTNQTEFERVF
Chain of Rho-associated protein kinase 1 (Q13464 whole entry): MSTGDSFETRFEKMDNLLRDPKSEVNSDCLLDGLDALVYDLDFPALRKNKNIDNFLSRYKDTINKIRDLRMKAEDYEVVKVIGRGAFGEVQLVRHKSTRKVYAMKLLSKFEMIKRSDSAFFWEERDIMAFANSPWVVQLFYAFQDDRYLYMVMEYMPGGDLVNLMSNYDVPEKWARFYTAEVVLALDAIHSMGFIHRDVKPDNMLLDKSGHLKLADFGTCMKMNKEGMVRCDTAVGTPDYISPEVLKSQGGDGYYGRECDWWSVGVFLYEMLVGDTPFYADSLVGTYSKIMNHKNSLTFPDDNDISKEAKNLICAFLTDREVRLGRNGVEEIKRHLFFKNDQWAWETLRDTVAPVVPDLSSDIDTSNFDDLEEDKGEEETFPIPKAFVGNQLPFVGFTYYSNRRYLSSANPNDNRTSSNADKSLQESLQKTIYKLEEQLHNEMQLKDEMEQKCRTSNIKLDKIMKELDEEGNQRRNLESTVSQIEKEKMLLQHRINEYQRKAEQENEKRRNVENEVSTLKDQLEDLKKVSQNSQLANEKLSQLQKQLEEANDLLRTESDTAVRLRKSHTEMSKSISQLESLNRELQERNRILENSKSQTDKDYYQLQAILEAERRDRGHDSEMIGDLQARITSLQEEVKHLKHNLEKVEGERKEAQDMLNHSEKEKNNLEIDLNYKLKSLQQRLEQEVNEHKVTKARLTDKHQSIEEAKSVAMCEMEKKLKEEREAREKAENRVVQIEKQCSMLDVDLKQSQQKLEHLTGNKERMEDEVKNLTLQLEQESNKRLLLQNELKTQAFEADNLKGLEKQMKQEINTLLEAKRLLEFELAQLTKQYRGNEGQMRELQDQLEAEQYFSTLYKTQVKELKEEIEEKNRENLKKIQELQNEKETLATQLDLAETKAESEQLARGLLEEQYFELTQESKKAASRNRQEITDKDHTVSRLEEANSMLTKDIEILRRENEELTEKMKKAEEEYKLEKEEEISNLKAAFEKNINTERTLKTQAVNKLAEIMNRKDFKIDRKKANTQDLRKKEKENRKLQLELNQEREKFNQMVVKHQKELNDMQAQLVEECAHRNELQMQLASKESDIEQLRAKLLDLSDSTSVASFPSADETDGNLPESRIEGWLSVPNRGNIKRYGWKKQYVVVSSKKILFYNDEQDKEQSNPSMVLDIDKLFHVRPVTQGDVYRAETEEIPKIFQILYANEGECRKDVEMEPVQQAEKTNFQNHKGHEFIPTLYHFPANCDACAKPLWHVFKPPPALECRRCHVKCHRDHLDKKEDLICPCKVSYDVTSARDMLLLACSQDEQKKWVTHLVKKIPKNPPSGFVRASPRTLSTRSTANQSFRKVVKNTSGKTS
Chain of Mitogen-activated protein kinase 14 (Q16539 whole entry): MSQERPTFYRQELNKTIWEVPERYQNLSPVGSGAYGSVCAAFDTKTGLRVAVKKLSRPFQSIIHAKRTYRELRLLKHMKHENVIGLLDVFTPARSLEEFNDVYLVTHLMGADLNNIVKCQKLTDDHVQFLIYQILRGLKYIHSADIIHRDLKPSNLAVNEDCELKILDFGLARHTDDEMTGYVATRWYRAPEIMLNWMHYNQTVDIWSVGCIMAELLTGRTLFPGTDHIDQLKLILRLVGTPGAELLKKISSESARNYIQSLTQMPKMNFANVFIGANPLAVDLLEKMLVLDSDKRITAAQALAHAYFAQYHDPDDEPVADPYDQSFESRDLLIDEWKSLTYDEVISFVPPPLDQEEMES
Chain of Protein kinase C theta type (Q04759 whole entry): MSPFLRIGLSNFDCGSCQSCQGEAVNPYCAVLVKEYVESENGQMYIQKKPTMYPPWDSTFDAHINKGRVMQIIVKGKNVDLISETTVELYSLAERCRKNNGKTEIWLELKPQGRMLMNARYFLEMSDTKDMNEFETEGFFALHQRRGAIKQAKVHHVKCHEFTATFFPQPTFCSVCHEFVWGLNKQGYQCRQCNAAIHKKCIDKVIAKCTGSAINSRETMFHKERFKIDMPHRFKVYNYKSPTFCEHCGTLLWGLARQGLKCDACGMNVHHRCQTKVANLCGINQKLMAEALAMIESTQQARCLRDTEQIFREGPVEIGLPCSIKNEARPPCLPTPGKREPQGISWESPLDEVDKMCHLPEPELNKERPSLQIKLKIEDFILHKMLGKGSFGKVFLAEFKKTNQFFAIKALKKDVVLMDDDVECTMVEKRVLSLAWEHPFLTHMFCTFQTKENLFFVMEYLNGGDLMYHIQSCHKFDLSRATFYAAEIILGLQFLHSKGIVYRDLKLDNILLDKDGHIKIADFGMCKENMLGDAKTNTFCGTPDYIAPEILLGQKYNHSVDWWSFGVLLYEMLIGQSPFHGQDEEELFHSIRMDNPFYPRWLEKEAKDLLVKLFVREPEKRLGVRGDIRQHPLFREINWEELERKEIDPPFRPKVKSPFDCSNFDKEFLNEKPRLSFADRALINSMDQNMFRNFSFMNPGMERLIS
Chain of Glycogen synthase kinase-3 alpha (P49840 whole entry): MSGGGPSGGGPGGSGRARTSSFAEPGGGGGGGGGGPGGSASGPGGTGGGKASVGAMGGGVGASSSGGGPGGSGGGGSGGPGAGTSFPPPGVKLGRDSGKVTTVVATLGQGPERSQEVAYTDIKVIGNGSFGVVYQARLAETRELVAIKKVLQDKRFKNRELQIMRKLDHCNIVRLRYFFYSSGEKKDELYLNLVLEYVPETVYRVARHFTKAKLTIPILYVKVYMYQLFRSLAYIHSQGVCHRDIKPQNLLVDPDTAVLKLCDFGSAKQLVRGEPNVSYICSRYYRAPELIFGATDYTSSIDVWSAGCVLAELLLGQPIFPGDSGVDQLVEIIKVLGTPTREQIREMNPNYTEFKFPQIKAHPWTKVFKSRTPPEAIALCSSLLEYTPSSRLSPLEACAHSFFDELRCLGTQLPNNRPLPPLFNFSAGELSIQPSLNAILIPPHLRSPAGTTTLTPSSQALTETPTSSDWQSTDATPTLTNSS

For the molecule `O=c1[nH]c2cc(Br)cnc2[nH]1`, the inhibition constant Ki was 31.6 µM (active) in assay [1]; 12.6 µM (active) in assay [2]; 63.1 µM (active) in [3]; 12.6 µM (active) in assay [4]; 10 µM (active) in [5]; 31.6 µM (active) at Focal adhesion kinase 1. The Ki on Aurora kinase B was 5.01 µM (active); in assay [6], 50.1 µM (active); in assay [7] it was 12.6 µM (active); in [8] it was > 50.1 µM (inactive).

As for `O=C(Nc1cccc(C(F)(F)F)n1)Nc1ccnc2cc(OC(F)F)ccc12`, the Ki in assay [1] is > 2.51 µM (inactive); in [2], > 6.31 µM (inactive); in assay [3], 0.0158 µM (active); in [4], > 2.51 µM (inactive); in assay [5], > 2.51 µM (inactive); on Focal adhesion kinase 1, > 6.31 µM (inactive). Also, the Ki at Aurora kinase B is > 3.98 µM (inactive); in assay [6], > 3.98 µM (inactive); in assay [7] it was > 1.58 µM (inactive); in [9], > 3.98 µM (inactive).

As to `O=C(Nc1cccc(C(F)(F)F)n1)Nc1ccnc2cc(Cl)ccc12`, the Ki was > 2.51 µM (inactive) in [1]; > 6.31 µM (inactive) in assay [2]; 0.0158 µM (active) in assay [3]; > 2.51 µM (inactive) in assay [4]; > 2.51 µM (inactive) in assay [5]; > 3.98 µM (inactive) at Aurora kinase B. Besides, the Ki in [6] was > 3.98 µM (inactive); in assay [7] it was > 1.58 µM (inactive); in [8], > 1.26 µM (inactive); in assay [9], > 3.98 µM (inactive).

Turning to `CCC1CC(NS(=O)(=O)C2CC2)CC1c1ncc2cnc3[nH]ccc3n12` (stereo not given), the Ki in [1] was 0.2 µM (active); in [2] it was > 2 µM (inactive); in [3], > 3.98 µM (inactive); in assay [4], > 2.51 µM (inactive); in [5], > 2.51 µM (inactive); at Focal adhesion kinase 1, > 6.31 µM (inactive). Moreover, the inhibition constant Ki was 0.0316 µM (active) in [6], > 1.58 µM (inactive) in assay [7], 0.2 µM (active) in [8] and > 3.98 µM (inactive) in [9].

One may read the Ki as the equilibrium dissociation constant of an inhibitor or competing ligand from its target.
